The values below come from patent publication US10098887B2, “Antiviral compounds and methods of use thereof” (Trana Discovery, Inc., priority 2010, dated 2018).

This assay deals with interaction between Human tRNA^Lys3 and HIV-1 genomic RNA. In words: Biochemical HIV-1 tRNA Inhibition Assay (AlphaScreen). Type of assay: binding. Also on record: key: +: showing some activity; ++: intermediate activity; +++: the highest activity. As to conditions: active compounds from high throughput screening, prioritized on IC50. An excerpt:
The methods for detecting binding of the target RNA to the tRNA or the inhibition of such binding may be performed using any method for such detection. For example, the AlphaScreen® assay (Packard Instrument Company, Meriden, Conn.). AlphaScreen® technology is an “Amplified Luminescent Proximity Homogeneous Assay” method utilizing latex microbeads (250 nm diameter) containing a photosensitizer (donor beads), or chemiluminescent groups and fluorescent acceptor molecules (acceptor beads). Upon illumination with laser light at 680 nm, the photosensitizer in the donor bead converts ambient oxygen to singlet-state oxygen. The excited singlet-state oxygen molecules diffuse approximately 250 nm (one bead diameter) before rapidly decaying. If the acceptor bead is in close proximity to the donor bead (i.e., by virtue of the interaction of the target RNA and tRNA fragment), the singlet-state oxygen molecules reacts with chemiluminescent groups in the acceptor beads, which immediately transfer energy to fluorescent acceptors in the same bead. These fluorescent acceptors shift the emission wavelength to 520-620 nm, resulting in a detectable signal. Antagonists of the interaction of the target RNA with the tRNA fragment will thus inhibit the shift in emission wavelength, whereas agonists of this interaction would enhance it.
In the AlphaScreen configuration (FIG. 3) the assay is done in solution using the same RNA as the immobilization assay. The donor and acceptor beads are bound to their respective RNA's. During the screening the RNAs and test drugs/small molecules are incubated together and formation of the complex is measured using the AlphaScreen detection conditions. Utilization of the AlphaScreen assay may allow for the assay to be run at a lower RNA concentration at room temperature, and increase the stability of the complex.
HIV-1 has evolved to use Human tRNA^Lys3 as a primer for initiation of reverse transcription. Therefore, the interaction between tRNA^Lys3 and viral genomic RNA represents a potential novel target for HIV-1 drug development. Based on this hypothesis, a biochemical assay to identify inhibitors of the interaction between Human tRNA^Lys3 and HIV-1 genomic RNA was developed by TRANA Discovery and transferred to Southern Research Institute for high-throughput screening. This assay was developed as a homogeneous amplified luminescent proximity assay using AlphaScreen™ reagents from PerkinElmer. Based on this assay technology, the AlphaScreen™ luminescent signal serves as a mechanism for detecting the interaction between RNA molecules that represent Human tRNA^Lys3 and HIV-1 genomic RNA. The inhibition of the interaction between these RNA molecules by test compounds is detected as a decrease in the AlphaScreen™ luminescent signal.
A preliminary 15,000 compound screen (NINDS Diversity Set) was previously completed and the results were reported through NIAID contract N01-AI-70042. For the results described herein, a 101,000 compound library that was purchased from ChemBridge for the NIAID TAACF program was used. This library was carefully selected for diversity and minimal similarity to the 100,000 compound NINDS library, which is also planned to be screened using the TRANA Discovery Biochemical HIV-1 tRNA Inhibition Assay. The compounds were screened at a concentration of 12.5 μg/mL (first 3 batches) or 25 μg/mL (fourth and final batch).
(In general: Bead proximity is the source of the signal in Alpha formats.)
In the case of `Cn1cccc1C=C1C(=O)NC(=S)N(c2ccc(Cl)cc2)C1=O` [1-(4-chlorophenyl)-5-[(1-methyl-1H-pyrrol-2-yl)methylene]-2-thioxodihydro-4,6(1H,5H)-pyrimidinedione], the Activity entry is listed as “+”. With `Cc1ccc2nc3c(c(Nc4ccc(N(C)C)cc4)c2c1)CCC3` [N,N-dimethyl-N′-(7-methyl-2,3-dihydro-1H-cyclopenta[b]quinolin-9-yl)-1,4-benzenediamine], the Activity result is “+”. For the compound `Cc1cccc(NC2=C(NCCO)C(=O)c3ccccc3C2=O)c1` [2-[(2-hydroxyethyl)amino]-3-[(3-methylphenyl)amino]naphthoquinone], the Activity result was “+”.

As to `Cc1cccc(NC2=C(N3CCOCC3)C(=O)c3ccccc3C2=O)c1` [2-[(3-methylphenyl)amino]-3-(4-morpholinyl)naphthoquinone], the Activity result is “++”.

In the case of `CCOc1ccc2c(c1)-c1c(ssc1=S)C(C)(C)N2C(C)=O` [5-acetyl-8-ethoxy-4,4-dimethyl-4,5-dihydro-1H-[1,2]dithiolo[3,4-c]quinoline-1-thione], the Activity result is given as “+”. For `Cc1nc(NC(=N)N)nc2c(C)cccc12` [N-(4,8-dimethyl-2-quinazolinyl)guanidine] the value was “+”; for `CN1C(=O)C(=Cc2c(Cl)ccc([N+](=O)[O-])c2Cl)SC1=S` [5-(2,6-dichloro-3-nitrobenzylidene)-3-methyl-2-thioxo-1,3-thiazolidin-4-one], “++”. Take `O=[N+]([O-])c1ccc(Nc2ccccc2O)c2nonc12` [2-[(7-nitro-2,1,3-benzoxadiazol-4-yl)amino]phenol]: the Activity entry is “++”. For `COC(=O)c1ccc(NC2=C(N3CCOCC3)C(=O)c3ccccc3C2=O)cc1` [methyl 4-{[3-(4-morpholinyl)-1,4-dioxo-1,4-dihydro-2-naphthalenyl]amino}benzoate], the Activity result is given as “++”. In the case of `CCOC(=O)CCCCC(=O)c1[nH]c(=O)[nH]c1C` [ethyl 6-(5-methyl-2-oxo-2,3-dihydro-1H-imidazol-4-yl)-6-oxohexanoate], the Activity entry is “++”. In the case of `Cc1cccc(NC2=C(N(C)C)C(=O)c3ccccc3C2=O)c1` [2-(dimethylamino)-3-[(3-methylphenyl)amino]naphthoquinone], the Activity result was “++”. Regarding `Cc1ccc2c(c1)-c1c(s[s+]c1SCC(=O)c1ccc([N+](=O)[O-])cc1)C(C)(C)N2.[Cl-]` [4,4,8-trimethyl-1-{[2-(4-nitrophenyl)-2-oxoethyl]thio}-4,5-dihydro[1,2]dithiolo[3,4-c]quinolin-2-ium chloride], the Activity entry was “++”. As to `CC(C)NC1=C(Cl)C(=O)c2ccccc2C1=O` [2-chloro-3-(isopropylamino)naphthoquinone], the Activity entry was “+”. Consider `O=C1NC(=O)N(c2cccc3ccccc23)C(=O)C1=Cc1ccco1` [5-(2-furylmethylene)-1-(1-naphthyl)-2,4,6(1H,3H,5H)-pyrimidinetrione], for which the Activity result was “+”.

For the compound `NN1C(=O)C(=Cc2ccc(O)c(O)c2)SC1=S` [3-amino-5-(3,4-dihydroxybenzylidene)-2-thioxo-1,3-thiazolidin-4-one], the Activity result was “+”. Turning to `Br.CCN(CC)c1ccc(Nc2nc(-c3ccccn3)cs2)cc1` [N,N-diethyl-N′-[4-(2-pyridinyl)-1,3-thiazol-2-yl]-1,4-benzenediamine hydrobromide], the Activity result was “+”.

Regarding `Cc1ccc(Nc2cc(C)c(O)c(C)c2)cc1` [2,6-dimethyl-4-[(4-methylphenyl)amino]phenol], the Activity result is reported as “++”. `CCOC(=O)c1ccc(NC2=C(N3CCOCC3)C(=O)c3ccccc3C2=O)cc1` [ethyl 4-{[3-(4-morpholinyl)-1,4-dioxo-1,4-dihydro-2-naphthalenyl]amino}benzoate]: the Activity entry is recorded as “++”. Turning to `Cc1cccc(CNc2ccc3c(c2)OCO3)c1` [1,3-benzodioxol-5-yl(3-methylbenzyl)amine], the Activity result was “+”. Take `CN(C)c1cccc2c1C(=O)c1ccccc1C2=O` [1-(dimethylamino)anthra-9,10-quinone]: the Activity result is listed as “++”.

For `O=C1NC(=S)N(c2ccc(Cl)cc2)C(=O)C1=Cc1ccco1` [1-(4-chlorophenyl)-5-(2-furylmethylene)-2-thioxodihydro-4,6(1H,5H)-pyrimidinedione], the Activity result is given as “+”. With `Cc1cccc(N2C(=O)C(=Cc3cccn3C)C(=O)NC2=S)c1` [1-(3-methylphenyl)-5-[(1-methyl-1H-pyrrol-2-yl)methylene]-2-thioxodihydro-4,6(1H,5H)-pyrimidinedione], the Activity entry is on record as “++”. For `COC(=O)c1ccc(N2CCCCC2)c2c1C(=O)c1ccccc1C2=O` [methyl 9,10-dioxo-4-(1-piperidinyl)-9,10-dihydro-1-anthracenecarboxylate], the Activity entry is “++”. For `CC(=O)c1ccc(NC2=C(N3CCCC3)C(=O)c3ccccc3C2=O)cc1` [2-[(4-acetylphenyl)amino]-3-(1-pyrrolidinyl)naphthoquinone] the value was “++”; for `O=C1C(Nc2ccc(F)c(F)c2)=C(N2CCOCC2)C(=O)c2ccccc21` [2-[(3,4-difluorophenyl)amino]-3-(4-morpholinyl)naphthoquinone], “+”; for `COc1cccc(NC2=C(N3CCCC3)C(=O)c3ccccc3C2=O)c1` [2-[(3-methoxyphenyl)amino]-3-(1-pyrrolidinyl)naphthoquinone], “++”. Take `Cc1ccc2c(C)nc(Nc3nc(C)cc(O)n3)nc2c1` [2-[(4,7-dimethyl-2-quinazolinyl)amino]-6-methyl-4-pyrimidinol]: the Activity result is “+”. On to `O=C1NC(=S)N(c2ccc(Cl)cc2)C(=O)C1=Cc1ccc([N+](=O)[O-])o1` [1-(4-chlorophenyl)-5-[(5-nitro-2-furyl)methylene]-2-thioxodihydro-4,6(1H,5H)-pyrimidinedione], for which the Activity entry is “+”. For the compound `COc1ccc2c(c1)-c1c(ssc1=S)C(C)(C)N2C(C)=O` [5-acetyl-8-methoxy-4,4-dimethyl-4,5-dihydro-1H-[1,2]dithiolo[3,4-c]quinoline-1-thione], the Activity result is listed as “+”. `O=C1C(Cl)=C(NCc2ccccc2)C(=O)c2ccccc21` [2-(benzylamino)-3-chloronaphthoquinone]: the Activity result is reported as “+”. Turning to `CCOC(=O)C=C1NC(c2ccccc2)=C(c2ccccc2)C1=O` [ethyl (3-oxo-4,5-diphenyl-1,3-dihydro-2H-pyrrol-2-ylidene)acetate], the Activity entry is recorded as “++”. For `O=C1C(=Cc2ccc(O)c(O)c2)SC(=S)N1c1cccc(F)c1` [5-(3,4-dihydroxybenzylidene)-3-(3-fluorophenyl)-2-thioxo-1,3-thiazolidin-4-one] the value was “++”; for `CCOC(=O)c1cc(N)ccc1-c1c2ccc(=O)cc-2oc2cc(O)ccc12` [ethyl 5-amino-2-(6-hydroxy-3-oxo-3H-xanthen-9-yl)benzoate], “+++”; for `O=C1c2ccccc2C(=O)c2c1cccc2N1CCCC1` [1-(1-pyrrolidinyl)anthra-9,10-quinone], “++”. For `O=C1C(Nc2cccc(F)c2)=C(N2CCCC2)C(=O)c2ccccc21` [2-[(3-fluorophenyl)amino]-3-(1-pyrrolidinyl)naphthoquinone] the value was “++”. As to `CCN1C(=O)C(=Cc2ccc(O)c(O)c2)SC1=S` [5-(3,4-dihydroxybenzylidene)-3-ethyl-2-thioxo-1,3-thiazolidin-4-one], the Activity result was “+”. In the case of `CC1(C)CC(Nc2cccc3c2C(=O)c2ccccc2C3=O)CC(C)(C)N1` [1-[(2,2,6,6-tetramethyl-4-piperidinyl)amino]anthra-9,10-quinone], the Activity entry is “+”. For `CN(C)C1=C(Cl)C(=O)c2ccccc2C1=O` [2-chloro-3-(dimethylamino)naphthoquinone] the value was “++”; for `CCN(CC)c1ccc(NC(=S)NC(=O)c2cccc(OC(C)C)c2)cc1` [N-({[4-(diethylamino)phenyl]amino}carbonothioyl)-3-isopropoxybenzamide], “+”.
